According to publication PMC11315935, “Multi-layered heterochromatin interaction as a switch for DIM2-mediated DNA methylation” (Nature Communications, 2024):

How the values were obtained:
[1] = tested on: DIM2; test: In vitro DNA methylation kinetics, substrate specificity of DIM2; format: biochemical, Neurospora Crassa; parameters: unit not given here; conditions: Sup Fig. 1f, 0.25 µM DIM2, 1.0 µM DNA, 1.0 µM H3K9me3 peptide, 0.5 µM HP1, pH 8.0, 30 °C
Protocol: (§1) In vitro DNA methylation assay was performed in a 20-µL reaction mixture. For the substrate specificity assay, the following DNA duplexes were used as substrates: CG DNA (Upper strand: 5’-[…]-3’), hemimethylated CG DNA (Upper strand: 5’-TAAATTTXGATTAATAAT-3’, X = 5-methylcytosine; Lower strand: 5’-[…] -3’), CHG DNA (Upper strand: 5’-[…]-3’), and CHH DNA (Upper strand: 5’-[…]-3’). The reaction mixture contains 0.25 µM DIM2, 1.0 µM DNA duplex, 1.0 µM synthesized H3K9me3 peptide (residues 1-24 of H3 plus a C-terminal tryptophan), 0.5 µM HP1, and 0.56 µM S-adenosyl-L-[methyl-^3H] methionine with a specific activity of 18 Ci/mmol (PerkinElmer) in buffer containing 50 mM Tris-HCl (pH 8.0), 100 mM NaCl, 0.05% β-mercaptoethanol, 5% glycerol, and 200 µg/mL BSA. For the rest of the DNA methylation assay, each reaction mixture contains 1.0 µM DIM2, 1.0 µM (CAT)12/(ATG)12 DNA duplex and 0.56 µM S-adenosyl-L-[methyl-^3H] methionine with a specific activity of 18 Ci/mmol (PerkinElmer) in buffer containing 50 mM Tris-HCl (pH 8.0), 100 mM NaCl, 0.05% β-mercaptoethanol, 5% glycerol, and 200 µg/mL BSA. In addition, 1.0 µM synthesized H3K9me3 or H3K9me0 peptide (residues 1-24 of H3 plus a C-terminal tryptophan) and/or 2 µM HP1 protein was included to evaluate the effect of H3 and HP1 regulation. The reaction mixture was incubated at 30 °C for 30 min, unless indicated otherwise, before being quenched by the addition of 5 µL of 10 mM cold SAM. After the reaction, 8 μL of the mixtures was loaded onto Hybond N nylon membrane (GE Healthcare), which was left to dry out at room temperature. The membrane was subsequently washed with 0.2 M ammonium bicarbonate (pH 8.2) two times (20 min per time), deionized water (20 min) once, and 95% ethanol (5 min) once. After air dried, the membrane carrying each sample was transferred into a vial containing 3 mL scintillation buffer (Fisher). The tritium scintillation was measured and recorded by a Beckman LS6500 counter. Each the reaction was repeated three times.

[2] = tested on: DIM2; test: In vitro DNA methylation assay: effect of HP1 and H3 peptides on DIM2 activity; format: biochemical, Neurospora Crassa; parameters: DNA methylation activity of DIM2 in presence of HP1, WT or W98A: unit not given beside the values; conditions: for effect on DNA methylation activity of DIM2 (in words): 36-mer DNA duplex, 1.0 µM peptide and/or 2 µM HP1; for DNA methylation activity of DIM2 in presence of HP1, WT or W98A: Sup Fig. 1e, (CTA)12/(TAG)12 DNA duplex, 1.0 µM DIM2, 2 µM HP1, 30 °C, 30 min, pH 8.0
Protocol: as §1, with “1.0 µM (CAT)12/(ATG)12 DNA duplex and 0.56 µM S-adenosyl-L-[methyl-^3H]” left out

[3] = reaction time 0 min, replicate 1
[4] = reaction time 0 min, replicate 2
[5] = reaction time 0 min, replicate 3
[6] = reaction time 15 min, replicate 1
[7] = reaction time 15 min, replicate 2
[8] = reaction time 15 min, replicate 3
[9] = reaction time 30 min, replicate 1
[10] = reaction time 30 min, replicate 2
[11] = reaction time 30 min, replicate 3

Substance: CG: CG DNA (Upper strand: 5’-ATTATTAATCGAAATTTA-3’) (DNA, backbone not given here; DNA duplex substrate for methylation assay)
- DNA methylation kinetics [1, 3]: 0.019
- DNA methylation kinetics [1, 4]: 0.03
- DNA methylation kinetics [1, 5]: 0.038
- DNA methylation kinetics [1, 6]: 0.476
- DNA methylation kinetics [1, 7]: 0.828
- DNA methylation kinetics [1, 8]: 0.621
- DNA methylation kinetics [1, 9]: 1.426
- DNA methylation kinetics [1, 10]: 1.174
- DNA methylation kinetics [1, 11]: 1.115

Substance: CHG: CHG DNA (Upper strand: 5’-ATTATTAATCTGAATTTA-3’) (DNA, backbone not given here; DNA duplex substrate for methylation assay)
- DNA methylation kinetics [1, 3]: 0.037
- DNA methylation kinetics [1, 4]: 0.044
- DNA methylation kinetics [1, 5]: 0.013
- DNA methylation kinetics [1, 6]: 1.24
- DNA methylation kinetics [1, 7]: 1.116
- DNA methylation kinetics [1, 8]: 1.338
- DNA methylation kinetics [1, 9]: 1.866
- DNA methylation kinetics [1, 10]: 1.872
- DNA methylation kinetics [1, 11]: 1.906

Substance: CHH: CHH DNA (Upper strand: 5’-ATTATTAATCTAAATTTA-3’) (DNA, backbone not given here; DNA duplex substrate for methylation assay)
- DNA methylation kinetics [1, 3]: 0.004
- DNA methylation kinetics [1, 4]: 0.003
- DNA methylation kinetics [1, 5]: 0.026
- DNA methylation kinetics [1, 6]: 0.184
- DNA methylation kinetics [1, 7]: 0.154
- DNA methylation kinetics [1, 8]: 0.169
- DNA methylation kinetics [1, 9]: 0.346
- DNA methylation kinetics [1, 10]: 0.291
- DNA methylation kinetics [1, 11]: 0.235

Substance: H3_1-24K9me0: H3K9me0 peptide (residues 1-24 of H3 plus a C-terminal tryptophan), unmethylated H3 K9
- effect on DNA methylation activity of DIM2 (in words) [2]: failed to synergize with HP1 to boost the DNA methylation activity of DIM2

Substance: HP1WT: Neurospora Crassa HP1 (residues 1-266; Q1K612)
- effect on DNA methylation activity of DIM2 (in words) [2]: slight but notable activity of DIM2
- DNA methylation activity of DIM2 in presence of HP1, WT or W98A ([2]; replicate 1): 22.922
- DNA methylation activity of DIM2 in presence of HP1, WT or W98A ([2]; replicate 2): 23.125
- DNA methylation activity of DIM2 in presence of HP1, WT or W98A ([2]; replicate 3): 22.99
